The results in this text go back to patent publication US7214534B2, “Isolated nucleic acid molecules encoding mutant μ opioid receptors” (Regents of the University of Minnesota, priority 2002, dated 2007).

SMILES strings stand for the structures. Several values for one entry are separate records, joined by “and”; a condition that tells them apart may be missing. Equal entries are not always repeated.

For series [1], the system named is wild-type mice. Put plainly: Tail withdrawal antinociception test, wild-type mice. Format: in vivo, mouse. The note with it: for ED50: Mus musculus, 0.5 h, read-out: ED50 tail withdrawal. As for the experimental part:
(§1) For tail withdrawal testing, mice were loosely wrapped in an adsorbent towel, and their tails were immersed about 2 cm into water heated to 53° C. or placed under radiant heat. The latency to tail withdrawal was recorded. A cut-off time of 24 seconds for warm water or 12 seconds for radiant heat was used to minimize tail damage. […] Percent maximum possible effects (% MPE) were calculated by the following formula: (measured latency−baseline latency)*100/(cut-off time−baseline latency). Each dose for each genotype involved 8–12 mice. ED50 values were derived from regression analysis on the linear portion of each dose-response curve or calculated by non-linear regression. A two way analysis of variance (ANOVA) (genotype and dose) was used to determine genetic differences among genotypes in the same dose groups.

In series [2] the test system is Cre/S196A mice. Kind of series: Tail withdrawal antinociception test, Cre/S196A mutant mice. Conditions: for ED50: Mus musculus, radiant heat. The method, then: as §1
In series [3] the test system is wild-type mice. Put plainly: Acetic acid-induced writhing inhibition test, wild-type mice. Type of series: in vivo, mouse. Conditions: for ED50: Mus musculus, ip, 0.6% acetic acid i.p. The method, then:
(§2) Writhing tests were conducted as follows. […] Writhing was counted for 20 minutes following the i.p. injection. At the same time, mice from each genotype were injected with saline s.c. plus acetic acid i.p., and the mean count of writhing of the saline group was calculated. The % MPE for writhing test was calculated by the following formula: (mean count of saline group−count of drug group)*100/(mean count of saline group).
In general terms: Writhing tests count abdominal constrictions after an irritant is injected.

Series [4] deals with Cre/S196A mice. Kind of series: Acetic acid-induced writhing inhibition test, Cre/S196A mutant mice. Conditions: for ED50: Mus musculus, ip, 0.6% acetic acid i.p. Format: in vivo, mouse. The method, then:
as §2

Series [5] deals with T1, μ opioid receptor (wild-type) (Mus musculus, UniProt P42866).
T1 construct: Brain membranes were prepared from both wild-type mice; from tissue; host or cells: mouse brain membranes (wild-type littermates)
Put plainly: [3H]DAMGO saturation binding (Scatchard analysis), brain membranes of wild-type mice. As for the experimental part:
(§3) Approximately 200–350 μg of membranes were used in each assay.

Series [6] deals with T2, μ opioid receptor S196A mutant (Mus musculus, UniProt P42866, S196A).
T2 construct: brain membranes from homozygous Cre/S196A (HOMO) mutant mice; from tissue; host or cells: brain membranes of homozygous Cre/S196A knock-in mice
Kind of series: [3H]DAMGO saturation binding (Scatchard analysis), brain membranes of homozygous Cre/S196A mice. Conditions: listed as [^3H]DAMGO. The method, then:
as §3

In series [7] the test system is μ opioid receptor knockout mice. Put plainly: Nalorphine antinociception in μ opioid receptor knockout mice. The note with it: μ opioid receptor knockout mice (data not shown). Type of series: in vivo, mouse.
[8] abbreviates: read-out: ED50 tail withdrawal, homozygous Cre/S196A mice, 30 minutes after morphine and nalorphine, 12 minutes after naloxone injection.

T2 sequence (P42866 whole entry S196A): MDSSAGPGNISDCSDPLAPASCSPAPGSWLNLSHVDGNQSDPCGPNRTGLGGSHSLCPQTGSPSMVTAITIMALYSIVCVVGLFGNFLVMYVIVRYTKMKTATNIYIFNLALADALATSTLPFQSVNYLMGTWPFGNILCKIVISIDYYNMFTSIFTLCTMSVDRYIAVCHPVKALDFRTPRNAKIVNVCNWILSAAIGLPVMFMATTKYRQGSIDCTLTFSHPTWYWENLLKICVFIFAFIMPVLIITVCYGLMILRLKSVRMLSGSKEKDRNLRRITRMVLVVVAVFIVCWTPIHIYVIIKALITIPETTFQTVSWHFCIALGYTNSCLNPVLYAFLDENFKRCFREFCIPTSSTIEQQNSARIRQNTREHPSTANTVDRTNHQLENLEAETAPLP
T1 sequence (P42866 whole entry): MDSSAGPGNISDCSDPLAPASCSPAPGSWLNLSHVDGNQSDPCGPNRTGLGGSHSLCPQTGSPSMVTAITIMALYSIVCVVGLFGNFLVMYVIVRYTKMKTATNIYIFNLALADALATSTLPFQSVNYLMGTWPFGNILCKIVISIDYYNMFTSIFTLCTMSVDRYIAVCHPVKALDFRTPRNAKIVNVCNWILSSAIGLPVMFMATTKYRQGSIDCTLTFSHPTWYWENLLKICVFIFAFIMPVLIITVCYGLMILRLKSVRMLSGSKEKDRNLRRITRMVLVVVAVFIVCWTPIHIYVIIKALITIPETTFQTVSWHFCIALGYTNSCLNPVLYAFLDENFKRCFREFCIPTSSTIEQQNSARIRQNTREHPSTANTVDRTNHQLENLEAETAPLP

Turning to `CN1CC[C@]23c4c5ccc(O)c4O[C@H]2[C@@H](O)C=C[C@H]3[C@H]1C5` [morphine], the ED50 in series [1] amounted to 4.4 mg/kg; in series [2] (read-out: ED50 tail withdrawal, heterozygous Cre/S196A mice) it was 3.47 mg/kg; in series [2] (setting [8]), 3.2 mg/kg; in series [3] it was 0.48 mg/kg; in series [4] (heterozygous Cre/S196A mice) it was 0.68 mg/kg; in series [4] (homozygous Cre/S196A mice), 0.5 mg/kg.
Consider `C[C@@H](NC(=O)[C@@H](N)Cc1ccc(O)cc1)C(=O)NCC(=O)N(C)[C@@H](Cc1ccccc1)C(=O)NCCO` [DAMGO, [D-Ala^1.N-McPhe^4.Gly^5-ol]enkephalin], for which the Bmax was 113±4.3 fmole/mg-protein in series [5]; 17.5±2.3 fmol/mg protein and 17.5 fmol/mg protein in series [6].
For the compound `C=CCN1CC[C@]23c4c5ccc(O)c4O[C@H]2[C@@H](O)C=C[C@H]3[C@H]1C5` [nalorphine], the ED50 in series [1] was 0.61 mg/kg; in series [2] (setting [8]), 0.89 mg/kg; in series [3] it was 0.37 mg/kg; in series [4] (homozygous Cre/S196A mice), 0.27 mg/kg. Moreover, the “maximal response, of the maximal morphine response, tail withdrawal” value in series [1] (wild-type mice) stood at 24±5%. For the same compound, the “antinociceptive response, of the morphine maximal response, tail withdrawal” value in series [2] (homozygous Cre/S196A mice, maximal dose tested, 10 mg/kg) is given as 68±5%. The “maximal response, of the maximal morphine response, writhing” value in series [3] is recorded as 44±3%. Moreover, in series [4] (homozygous Cre/S196A mice, dose of 1 mg/kg), the “maximal antinociceptive response compared with morphine, inhibition of writhing” value was “same maximal antinociceptive response as morphine”. Further, the antinociceptive effect entry in series [7] is “absence of nalorphine effect”.
In the case of `C=CCN1CC[C@]23c4c5ccc(O)c4O[C@H]2C(=O)CC[C@@]3(O)[C@H]1C5` [naloxone], in series [1] (wild-type mice, doses of 0.1 to 10 mg/kg), the “antinociceptive response, tail withdrawal” value is “did not produce significant antinociceptive responses”. For the same compound, the ED50 in series [2] (setting [8]) worked out at 1.32 mg/kg; in series [4] (homozygous Cre/S196A mice), 0.22 mg/kg. Moreover, the toxic effects entry in series [2] (both the mutant and the wild-type mice at higher dosages) was “increasing toxic effects”. For the same compound, in series [3] (doses of 0.1 to 10 mg/kg), the “antinociceptive response, writhing” value is reported as “did not produce significant antinociceptive responses”. For the same compound, the “maximal response, of that observed with morphine, writhing inhibition” value in series [4] (Cre/S196A mice) is listed as 45±3.
